Assay results taken from PubChem BioAssay AID248 (DTP/NCI, 2004).
Where “and” joins values, the source holds several entries; their conditions need not be identical. Equal entries are not always repeated. Inconclusive results and toxic doses are left out. No stated cut-off is given here; in the data, active means T/C of 150% or more; inactive means T/C below 125%.

Test system: L1210 leukemia ip in BDF1 mice, survival T/C
Assay: NCI In Vivo Anticancer Drug Screen. Data for tumor model L1210 Leukemia (intraperitoneal) in B6D2F1 (BDF1) mice
Settings: endpoint: mean survival time, higher = longer survival
Outline: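 Transplantable tumor model; survival measured in treated vs vehicle control mice. Value = treated/control.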

[1] = dose: 100.0 mg/kg/injection, schedule: Q01DX001 (ip), vehicle: carboxymethylcellulose (CMC)
[2] = dose: 200.0 mg/kg/injection, schedule: Q01DX001 (ip), vehicle: carboxymethylcellulose (CMC)
[3] = dose: 400.0 mg/kg/injection, schedule: Q01DX001 (ip), vehicle: carboxymethylcellulose (CMC)
[4] = dose: 100.0 mg/kg/injection, schedule: Q01DX001 (ip), vehicle: Klucel (hydroxypropylcellulose) (HPC)
[5] = dose: 100.0 mg/kg/injection, schedule: Q01DX009 (ip), vehicle: Klucel (hydroxypropylcellulose) (HPC)
[6] = dose: 100.0 mg/kg/injection, schedule: Q04DX003 (ip), vehicle: Klucel (hydroxypropylcellulose) (HPC)
[7] = dose: 200.0 mg/kg/injection, schedule: Q01DX009 (ip), vehicle: Klucel (hydroxypropylcellulose) (HPC)
[8] = dose: 200.0 mg/kg/injection, schedule: Q04DX003 (ip), vehicle: Klucel (hydroxypropylcellulose) (HPC)
[9] = dose: 400.0 mg/kg/injection, schedule: Q04DX003 (ip), vehicle: Klucel (hydroxypropylcellulose) (HPC)
[10] = dose: 100.0 mg/kg/injection, schedule: Q01DX001 (ip), vehicle: saline
[11] = dose: 100.0 mg/kg/injection, schedule: Q01DX009 (ip), vehicle: saline with Tween-80
[12] = dose: 100.0 mg/kg/injection, schedule: Q04DX003 (ip), vehicle: saline
[13] = dose: 200.0 mg/kg/injection, schedule: Q01DX001 (ip), vehicle: saline
[14] = dose: 200.0 mg/kg/injection, schedule: Q01DX009 (ip), vehicle: saline with Tween-80
[15] = dose: 200.0 mg/kg/injection, schedule: Q04DX003 (ip), vehicle: saline
[16] = dose: 400.0 mg/kg/injection, schedule: Q04DX003 (ip), vehicle: saline
[17] = dose: 100.0 mg/kg/injection, schedule: Q01DX009 (ip), vehicle: saline
[18] = dose: 200.0 mg/kg/injection, schedule: Q01DX009 (ip), vehicle: saline
[19] = dose: 400.0 mg/kg/injection, schedule: Q01DX009 (ip), vehicle: saline
[20] = dose: 400.0 mg/kg/injection, schedule: Q01DX009 (ip), vehicle: saline with Tween-80
[21] = dose: 100.0 mg/kg/injection, schedule: Q04DX003 (ip), vehicle: saline with Tween-80
[22] = dose: 200.0 mg/kg/injection, schedule: Q04DX003 (ip), vehicle: saline with Tween-80

Measured: T/C

FC1C(F)(F)C(F)(F)C(F)(F)C(F)(F)C1(F)F
inactive: dose: 50.0 mg/kg/injection, schedule: Q01DX001 (ip), vehicle: carboxymethylcellulose (CMC) 97 % of control | [1] 97 % of control | [2] 107 % of control | [3] 96 % of control

O=C(Nc1ccc(Cl)cc1)c1cc(Cl)cc(Cl)c1Br
inactive: [1] 95 % of control | [2] 93 % of control | [3] 91 % of control

COc1ccc(-n2c(=O)c(N=Nc3ccc(Cl)cc3)c(O)n(-c3ccc(Br)cc3)c2=S)cc1
inactive: [4] 94 % of control | dose: 200.0 mg/kg/injection, schedule: Q01DX001 (ip), vehicle: Klucel (hydroxypropylcellulose) (HPC) 94 % of control | dose: 400.0 mg/kg/injection, schedule: Q01DX001 (ip), vehicle: Klucel (hydroxypropylcellulose) (HPC) 92 % of control

O=C(c1ccccc1)N1CC1
inactive: dose: 25.0 mg/kg/injection, schedule: Q01DX009 (ip), vehicle: water 95 % of control | dose: 50.0 mg/kg/injection, schedule: Q01DX009 (ip), vehicle: water 93 % of control | dose: 100.0 mg/kg/injection, schedule: Q01DX009 (ip), vehicle: water 86 % of control | dose: 200.0 mg/kg/injection, schedule: Q01DX009 (ip), vehicle: water 88 % of control | dose: 400.0 mg/kg/injection, schedule: Q01DX009 (ip), vehicle: water 90 % of control

CCCCN(CCCC)CCCNC(=O)OCC
inactive: dose: 25.0 mg/kg/injection, schedule: Q01DX009 (ip), vehicle: Klucel (hydroxypropylcellulose) (HPC) 92 % of control | dose: 50.0 mg/kg/injection, schedule: Q01DX009 (ip), vehicle: Klucel (hydroxypropylcellulose) (HPC) 94 % of control | dose: 50.0 mg/kg/injection, schedule: Q04DX003 (ip), vehicle: Klucel (hydroxypropylcellulose) (HPC) 100 % of control | [5] 106 % of control and 87 % of control | [6] 103 % of control

Cc1ccccc1NC(=O)Nc1cccc(C)c1C
inactive: [5] 87 % of control | [6] 98 % of control | [7] 95 % of control | [8] 93 % of control | [9] 94 % of control

CCOC(=O)c1ccc(NC(=O)Nc2c(C)n(C)n(-c3ccccc3)c2=O)cc1
inactive: [10] 87 % of control | [11] 89 % of control | [12] 89 % of control | [13] 90 % of control | [14] 86 % of control | [15] 89 % of control | dose: 400.0 mg/kg/injection, schedule: Q01DX001 (ip), vehicle: saline 92 % of control | [16] 90 % of control

Cc1ccc(NC(=O)c2ccccc2)cc1
inactive: dose: 100.0 mg/kg/injection, schedule: Q04DX002 (ip), vehicle: Klucel (hydroxypropylcellulose) (HPC) 95 % of control | dose: 200.0 mg/kg/injection, schedule: Q04DX002 (ip), vehicle: Klucel (hydroxypropylcellulose) (HPC) 95 % of control

c1cc[c]([Pb]([c]2ccccc2)([c]2ccccc2)[n]2c3ccccc3c3ccccc32)cc1
inactive: dose: 1.56 mg/kg/injection, schedule: Q01DX009 (ip), vehicle: saline with Tween-80 99 % of control | dose: 3.12 mg/kg/injection, schedule: Q01DX009 (ip), vehicle: saline with Tween-80 98 % of control | dose: 6.25 mg/kg/injection, schedule: Q01DX009 (ip), vehicle: saline with Tween-80 91 % of control

CCCCCCCCCCCCCCCCCC(=O)N/N=C/c1ccc(N(C)C)cc1
inactive: [5] 93 % of control | [7] 94 % of control | dose: 400.0 mg/kg/injection, schedule: Q01DX009 (ip), vehicle: Klucel (hydroxypropylcellulose) (HPC) 98 % of control

Cc1cc(NC(=O)NCc2ccc(N3C(N)=NC(N)=NC3(C)C)cc2)ccc1S(=O)(=O)F
inactive: dose: 50.0 mg/kg/injection, schedule: Q01DX009 (ip), vehicle: saline 102 % of control | [17] 119 % of control | [18] 107 % of control | [19] 114 % of control

Cc1nc2cnc(N)nc2nc1C
inactive: dose: 16.0 mg/kg/injection, schedule: Q01DX Z (ip), vehicle: methylcellulose (MC) 97 % of control | dose: 31.0 mg/kg/injection, schedule: Q01DX Z (ip), vehicle: methylcellulose (MC) 97 % of control | dose: 62.0 mg/kg/injection, schedule: Q01DX Z (ip), vehicle: methylcellulose (MC) 109 % of control | dose: 100.0 mg/kg/injection, schedule: Q01DX001 (ip), vehicle: other 96 % of control | dose: 125.0 mg/kg/injection, schedule: Q01DX Z (ip), vehicle: methylcellulose (MC) 89 % of control and 90 % of control | dose: 200.0 mg/kg/injection, schedule: Q01DX001 (ip), vehicle: other 101 % of control | dose: 250.0 mg/kg/injection, schedule: Q01DX Z (ip), vehicle: methylcellulose (MC) 91 % of control | dose: 400.0 mg/kg/injection, schedule: Q01DX001 (ip), vehicle: other 98 % of control | dose: 500.0 mg/kg/injection, schedule: Q01DX Z (ip), vehicle: methylcellulose (MC) 93 % of control

CCCCP(=O)(CC(=O)O)c1ccccc1 (stereo unspecified)
inactive: dose: 100.0 mg/kg/injection, schedule: Q04DX002 (ip), vehicle: saline with Tween-80 97 % of control | dose: 200.0 mg/kg/injection, schedule: Q04DX002 (ip), vehicle: saline with Tween-80 100 % of control | dose: 400.0 mg/kg/injection, schedule: Q04DX002 (ip), vehicle: saline with Tween-80 90 % of control

CCOC(=O)c1ccc2ccccc2c1
inactive: [11] 94 % of control | [14] 97 % of control | [20] 89 % of control

CC(=O)NC1CCC(C)CC1 (stereo unspecified)
inactive: dose: 50.0 mg/kg/injection, schedule: Q01DX001 (ip), vehicle: saline 109 % of control | [4] 93 % of control | [10] 93 % of control | [13] 102 % of control

Nc1ccccc1SCc1ccccc1
inactive: [21] 101 % of control | [22] 96 % of control | dose: 400.0 mg/kg/injection, schedule: Q04DX003 (ip), vehicle: saline with Tween-80 98 % of control

O=C(O)c1scc2c1CCCC2
inactive: [21] 97 % of control | [22] 87 % of control

COc1ccc(OC)c(NC(=O)CI)c1
inactive: dose: 25.0 mg/kg/injection, schedule: Q01DX001 (ip), vehicle: Klucel (hydroxypropylcellulose) (HPC) 103 % of control | dose: 50.0 mg/kg/injection, schedule: Q01DX001 (ip), vehicle: Klucel (hydroxypropylcellulose) (HPC) 104 % of control | [4] 98 % of control

COc1ccccc1C(=S)N1CCCCC1
inactive: [12] 97 % of control | [15] 89 % of control | [16] 92 % of control

O=C(O)CCn1ccc2ccccc21
inactive: [6] 97 % of control | [8] 97 % of control | [9] 97 % of control

OC(C#Cc1ccccc1)c1ccccc1 (stereo unspecified)
inactive: dose: 50.0 mg/kg/injection, schedule: Q01DX009 (ip), vehicle: saline with Tween-80 105 % of control | [11] 100 % of control | [21] 95 % of control | [14] 88 % of control and 89 % of control | [22] 101 % of control | [20] 98 % of control

O=C1C=C2CCCC2CC1 (stereo unspecified)
inactive: dose: 75.0 mg/kg/injection, schedule: Q01DX001 (ip), vehicle: other 97 % of control | dose: 75.0 mg/kg/injection, schedule: Q04DX003 (ip), vehicle: other 93 % of control | dose: 150.0 mg/kg/injection, schedule: Q01DX001 (ip), vehicle: other 92 % of control | dose: 150.0 mg/kg/injection, schedule: Q04DX003 (ip), vehicle: other 98 % of control | dose: 300.0 mg/kg/injection, schedule: Q01DX001 (ip), vehicle: other 94 % of control | dose: 300.0 mg/kg/injection, schedule: Q04DX003 (ip), vehicle: other 92 % of control

CCC(N)Cc1ccc2c(c1)OCO2 (stereo unspecified)
inactive: dose: 25.0 mg/kg/injection, schedule: Q04DX003 (ip), vehicle: saline 98 % of control | dose: 50.0 mg/kg/injection, schedule: Q04DX003 (ip), vehicle: saline 101 % of control | [12] 100 % of control

Nc1cccc2ccc(S(=O)(=O)O)cc12
inactive: [17] 106 % of control | [18] 97 % of control | [19] 101 % of control
